Structures can show the parent of a compound that is named as a salt. Where two headings read alike, the source gives them in different places.
Tests used:
[1] = target: T1, cloned human NK2 receptors (Homo sapiens, UniProt P21452); experiment: Binding of [125I]His-NKA to cloned human NK2 receptors expressed by CHO cells; details: read-out: inhibition constant Ki, binding of [125I]His-NKA to cloned human NK2 receptors
T1 construct: expressed in transfected cells; host or cells: CHO cells
T1 sequence (P21452 1-398): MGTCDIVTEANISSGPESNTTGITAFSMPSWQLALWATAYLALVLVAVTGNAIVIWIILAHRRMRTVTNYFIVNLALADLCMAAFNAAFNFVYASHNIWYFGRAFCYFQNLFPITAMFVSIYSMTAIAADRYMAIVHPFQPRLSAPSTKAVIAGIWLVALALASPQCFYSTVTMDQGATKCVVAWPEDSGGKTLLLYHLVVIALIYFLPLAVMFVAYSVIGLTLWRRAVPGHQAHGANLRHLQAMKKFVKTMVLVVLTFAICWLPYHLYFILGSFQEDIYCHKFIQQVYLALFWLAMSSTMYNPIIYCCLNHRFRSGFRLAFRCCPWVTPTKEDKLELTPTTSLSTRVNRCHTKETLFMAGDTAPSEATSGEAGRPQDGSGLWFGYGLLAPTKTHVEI
Experimental: The affinity of the compounds for tachykinin receptors was evaluated in vitro by several biochemical tests using radioligands: 2) The binding of [^125I]|His-NKA to the cloned human NK2 receptors expressed by CHO cells (Y. Takeda et al., J. Neurochem., 1992, 59, 740-745). The tests were carried out according to X. Emonds-Alt et al. (Eur. J. Pharmacol., 1993, 250, 403-413; Life Sci., 1995, 56, PL 27-32). […] The inhibition constant Ki is less than or equal to 5×10^−10M.

[2] = target: T2, cloned human NK3 receptors (Homo sapiens, UniProt P29371); experiment: Binding of [125I]His[MePhe7]NKB to cloned human NK3 receptors expressed by CHO cells; details: read-out: inhibition constant Ki, binding of [125I]His[MePhe7]NKB to cloned human NK3 receptors
T2 construct: expressed in transfected cells; host or cells: CHO cells
T2 sequence (P29371 1-465): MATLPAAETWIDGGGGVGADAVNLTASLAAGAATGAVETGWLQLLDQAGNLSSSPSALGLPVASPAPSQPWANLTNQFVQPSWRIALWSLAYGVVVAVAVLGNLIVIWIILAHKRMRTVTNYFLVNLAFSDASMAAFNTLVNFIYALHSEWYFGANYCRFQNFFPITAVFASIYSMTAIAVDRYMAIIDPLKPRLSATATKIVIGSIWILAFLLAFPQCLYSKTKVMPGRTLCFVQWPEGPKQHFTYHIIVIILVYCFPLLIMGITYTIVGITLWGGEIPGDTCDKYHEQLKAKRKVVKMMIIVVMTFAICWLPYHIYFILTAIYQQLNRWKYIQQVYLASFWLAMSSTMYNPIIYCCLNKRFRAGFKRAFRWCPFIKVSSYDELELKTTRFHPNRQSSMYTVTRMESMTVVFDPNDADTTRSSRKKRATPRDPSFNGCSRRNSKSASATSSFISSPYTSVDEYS
Experimental: The affinity of the compounds for tachykinin receptors was evaluated in vitro by several biochemical tests using radioligands: 3) The binding of [^125I]His[[…]]NKB to the cloned human NK3 receptors expressed by CHO cells (Buell et al., FEBS Letters, 1992, 299, 90-95). The tests were carried out according to X. Emonds-Alt et al. (Eur. J. Pharmacol., 1993, 250, 403-413; Life Sci., 1995, 56, PL 27-32).

[3] = target: T3, NK2 receptors (Rattus norvegicus, UniProt P16610); details: rats, literature reference; cited from earlier work
T3 construct: from tissue; host or cells: rat brain (septum/hippocampus; prefrontal cortex), living animal
T3 sequence (P16610 1-390): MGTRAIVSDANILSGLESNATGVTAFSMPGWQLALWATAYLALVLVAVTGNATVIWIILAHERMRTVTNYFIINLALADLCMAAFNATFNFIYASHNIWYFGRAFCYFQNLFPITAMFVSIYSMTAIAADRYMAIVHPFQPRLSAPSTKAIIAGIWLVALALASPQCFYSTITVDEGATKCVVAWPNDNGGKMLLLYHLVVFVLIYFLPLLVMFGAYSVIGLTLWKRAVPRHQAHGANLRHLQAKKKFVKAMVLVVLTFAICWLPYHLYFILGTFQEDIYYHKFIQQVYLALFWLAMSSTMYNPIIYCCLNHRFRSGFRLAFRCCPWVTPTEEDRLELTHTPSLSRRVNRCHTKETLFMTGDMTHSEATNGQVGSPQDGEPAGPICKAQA

[4] = test system: NK2 receptor; experiment: Rotating behaviour induced by intrastriatal [Nle10]NKA(4-10) in gerbils; assay type: in vivo, gerbil; details: [Nle10]NKA(4-10) intrastriatal
Experimental: In gerbils, a rotating behaviour is induced by intrastriatal administration of a specific agonist of the NK2 receptor, [Nle^10]NKA(4-10); it was observed that a unilateral application of [Nle^10]NKA(4-10) into the gerbil striatum leads to strong contralateral rotations which are inhibited by the compounds according to the invention administered either by the intraperitoneal route, or by the oral route. This test was carried out according to M. Poncelet et al., Neurosci, Lett., 1993, 149, 40-42. In this test, the compounds according to the invention are active at doses ranging from 0.1 mg to 30 mg per kg.

[5] = target: T4, NK3 receptors (Cavia porcellus, UniProt P30098); experiment: Increase in hippocampal acetylcholine release caused by NK3 agonist applied in the septum of guinea pigs; assay type: in vivo, guinea pig; details: 0.3-1 mg/kg by the intraperitoneal route
T4 construct: from tissue; host or cells: guinea pig brain (septum/hippocampus; A10/VTA), living animal
T4 sequence (P30098 1-440): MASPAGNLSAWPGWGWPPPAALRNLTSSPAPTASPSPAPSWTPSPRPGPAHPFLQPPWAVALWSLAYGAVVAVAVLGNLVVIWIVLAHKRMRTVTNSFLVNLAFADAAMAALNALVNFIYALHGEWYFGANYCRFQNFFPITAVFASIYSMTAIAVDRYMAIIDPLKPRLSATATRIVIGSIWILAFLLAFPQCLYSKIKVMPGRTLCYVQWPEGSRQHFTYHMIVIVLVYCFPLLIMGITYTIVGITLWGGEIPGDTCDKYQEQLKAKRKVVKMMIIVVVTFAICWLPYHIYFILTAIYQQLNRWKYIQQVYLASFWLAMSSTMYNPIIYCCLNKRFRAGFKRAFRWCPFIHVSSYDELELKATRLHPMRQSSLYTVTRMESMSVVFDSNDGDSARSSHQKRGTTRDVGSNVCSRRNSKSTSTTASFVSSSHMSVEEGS
Excerpt: (§1) In rats, the application of an agonist of the NK2 receptors in the septum causes an increase in the release of acetylcholine in the hippocampus (test carried out according to R. Steinberg et al., Eur. J. Neurosci., 1998, 10, 2337-2345). Likewise in guinea pigs, the local application of an agonist of the NK3 receptors in the septum causes an increase in the release of acetylcholine in the hippocampus (test carried out according to N. Marco et al., Neuropeptides, 1998, 32, 481-488).

[6] = target: T3, NK2 receptors; experiment: Increase in hippocampal acetylcholine release caused by NK2 agonist applied in the septum of rats; assay type: in vivo; details: 0.1-0.3 mg/kg by the intraperitoneal route
Excerpt: as §1

[7] = target: T3, NK2 receptors; experiment: Constraint stress-induced increase in tissue level of DOPAC in prefrontal cortex of rats; assay type: in vivo; details: 1 mg/kg by the intraperitoneal route
Excerpt: In rats, constraint stress causes an increase in the tissue level of DOPAC (3,4-dihydroxyphenyl acetic acid) in the prefrontal cortex (test carried out according to B. A. Morrow et al., Eur. J. Pharmacol., 1993, 238, 255-262).

[8] = test system: NK3 receptor; experiment: Rotating behaviour induced by intrastriatal senktide in gerbils; assay type: in vivo, gerbil
Experimental: This test was carried out according to X. Emonds-Alt et al., Life Sci., 1995, 56, PL27-PL32.

[9] = target: T4, NK3 receptors; experiment: Haloperidol-induced increase in number of spontaneously active dopaminergic neurons in A10 region of guinea pigs; assay type: in vivo, guinea pig; details: haloperidol 1 mg/kg i.p., compound 0.1-1 mg/kg by the intraperitoneal route
Excerpt: This increase is mediated by the activation of the NK3 receptors by endogenous neurokinin B (C. Gueudet et al., Synapse, 1999, 33, 71-79).

Ki [1]	Ki [2]	effect on increase in release of acetylcholine in the hippocampus caused by an NK3 agonist [5]	effect on increase in release of acetylcholine in the hippocampus caused by an NK2 agonist [6]	effect on constraint stress-induced increase in DOPAC tissue level in prefrontal cortex [7]	effect on haloperidol-induced increase in number of spontaneously active dopaminergic neurons (A10 region) [9]	SMILES	effect on constraint stress-induced increase in DOPAC tissue level in prefrontal cortex [3]	effective dose 50 (ED50), inhibition of contralateral rotations ([4]; intraperitoneal route)	effective dose 50 (ED50), inhibition of contralateral rotations ([4]; oral route)	ED50, inhibition of contralateral rotations ([8]; intraperitoneal route)	ED50, inhibition of contralateral rotations ([8]; oral route)
0.04 nM	2 nM	–	–	–	–	NC(=O)C1(N2CCCCC2)CCN(CCC2(c3ccc(Cl)c(Cl)c3)CN(C(=O)c3ccccc3)CCO2)CC1 (stereo not drawn) [compound α, 1-[2-[4-benzoyl-2-(3,4-dichlorophenyl)morpholin-2-yl]ethyl]-4-(piperidin-1-yl)piperidine-4-carboxamide, reference compound]	–	–	–	–	–
–	–	–	–	–	–	CC(=O)NC1(c2ccccc2)CCN(CC[C@H](CN(C)C(=O)c2ccccc2)c2ccc(Cl)c(Cl)c2)CC1 [saredutant]	blocked	–	–	–	–
0.04 nM	0.04 nM	blocks	blocks	completely blocks	blocks	CN(C)C(=O)C1(N2CCCCC2)CCN(CCC2(c3ccc(Cl)c(Cl)c3)CN(C(=O)c3ccccc3)CCO2)CC1 (single isomer, unassigned) [Example 1, N,N-Dimethyl-1-[2-[4-benzoyl-2-(3,4-dichloro-phenyl)morpholin-2-yl]ethyl]-4-(piperidin-1-yl)-piperidine-4-carboxamide dihydrochloride, dextrorotatory isomer]	–	2.9 mg per kg	6.5 mg per kg	2.8 mg per kg	4.3 mg per kg
